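Values below derive from 48-hour exposures of cells grown in 96-well plates, with endpoints linearly interpolated between the two concentrations bracketing the appropriate inhibition level. At the GI50, growth is halved. Definition used: TGI = concentration required for complete inhibition of growth.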

Some test systems named below: UO-31 renal; HL-60(TB) leukemia; A498 renal; KM12 colon; ACHN renal; MOLT-4 leukemia; NCI/ADR-RES ovarian; NCI-H460 lung; IGROV1 ovarian; UACC-62 melanoma.
Common to all, as to experiment: NCI anticancer screen, dose series, 48 h

Regarding `COc1cc(C2c3cc4c(cc3C(OC(=O)C[n+]3ccccc3)C3COC(=O)C23)OCO4)cc(OC)c1OC` (configuration not stated), the GI50 in the assay on UO-31 renal was under 0.0231 µM; in the assay on HL-60(TB) leukemia, under 15.6 nM; in the assay on A498 renal, under 0.01 µM; in the assay with KM12 colon it was under 0.0168 µM; with ACHN renal, under 0.0204 µM; in the assay on MOLT-4 leukemia, under 19.7 nM. Moreover, the GI50 was under 0.0169 µM in the assay with NCI/ADR-RES ovarian, under 18.7 nM in the assay with NCI-H460 lung, under 0.0207 µM with IGROV1 ovarian and 10.7 µM with UACC-62 melanoma. Further, the TGI is over 100 µM in the assay on UO-31 renal; under 0.0287 µM with HL-60(TB) leukemia; 15.8 µM in the assay with A498 renal; over 100 µM with KM12 colon; over 100 µM in the assay with ACHN renal; over 100 µM in the assay with MOLT-4 leukemia. Moreover, the TGI in the assay on NCI/ADR-RES ovarian, in the assay on NCI-H460 lung, with IGROV1 ovarian and in the assay on UACC-62 melanoma was over 100 µM in each case.
`CN1CCN(Cc2ccc(NC(=O)c3cncc(C#Cc4cnc(N)c5cccnc45)c3)cc2C(F)(F)F)CC1`: the GI50 was 1.1 µM in the assay with UO-31 renal; 223 nM in the assay on HL-60(TB) leukemia; 0.112 µM with A498 renal; 0.069 µM with KM12 colon; 214 nM with MOLT-4 leukemia; over 50 µM in the assay on NCI/ADR-RES ovarian. In addition, the GI50 is 272 nM in the assay with NCI-H460 lung and 0.182 µM with UACC-62 melanoma. In addition, the TGI in the assay with UO-31 renal is 2.78 µM; in the assay on HL-60(TB) leukemia, 1.17 µM; in the assay with A498 renal, 0.723 µM; with KM12 colon, over 50 µM; with MOLT-4 leukemia, over 50 µM; with NCI/ADR-RES ovarian, over 50 µM. Also, the TGI with NCI-H460 lung is over 50 µM; in the assay on UACC-62 melanoma, 0.956 µM.
With `c1ccc(CNCCN(CCNCc2ccccn2)Cc2ccc3ccccc3c2)nc1`, the GI50 with UO-31 renal was 0.668 µM; with HL-60(TB) leukemia, 2400 nM; with A498 renal, 1.86 µM; in the assay with KM12 colon, 2.14 µM; with ACHN renal, 1.05 µM; in the assay on MOLT-4 leukemia, 2580 nM. Moreover, the GI50 is 2.4 µM in the assay with NCI/ADR-RES ovarian, 2140 nM in the assay on NCI-H460 lung, 2.3 µM with IGROV1 ovarian and 2.17 µM in the assay with UACC-62 melanoma. Moreover, the TGI is 2.3 µM in the assay on UO-31 renal; 5.77 µM with HL-60(TB) leukemia; 3.71 µM in the assay with A498 renal; 4.85 µM in the assay with KM12 colon; 2.43 µM in the assay on ACHN renal; 7.5 µM in the assay with MOLT-4 leukemia. Besides, the TGI in the assay on NCI/ADR-RES ovarian was 6.96 µM; in the assay with NCI-H460 lung it was 5 µM; in the assay with IGROV1 ovarian, 7.5 µM; in the assay with UACC-62 melanoma, 4.7 µM.
As to `Nc1ccccc1C(=O)CCC1C(=O)NC(=S)NC1=O`, the TGI in the assay on UO-31 renal, in the assay on HL-60(TB) leukemia, in the assay with A498 renal, in the assay with KM12 colon, in the assay on ACHN renal and in the assay on MOLT-4 leukemia was over 100 µM throughout. Also, the TGI in the assay with NCI/ADR-RES ovarian, with NCI-H460 lung, with IGROV1 ovarian and with UACC-62 melanoma was over 100 µM throughout.
With `CCCCCCCCCCCCOC1C(CNC(=O)C2OC3OC(C)(C)OC3C2NC(=O)CN2CCN(c3ccc(OC)cc3)CC2)OC2OC(C)(C)OC21` (configuration not stated), the GI50 in the assay with UO-31 renal was 3.36 µM; in the assay on HL-60(TB) leukemia, 2130 nM; in the assay on A498 renal, 7.96 µM; with KM12 colon it was 3.35 µM; with ACHN renal it was 3.59 µM; in the assay with MOLT-4 leukemia, 3120 nM. The figures for the GI50 with NCI/ADR-RES ovarian, in the assay on IGROV1 ovarian and in the assay with UACC-62 melanoma were 4.03 µM, 4.24 µM and 5.44 µM, respectively. For the same compound, the TGI with UO-31 renal came out at 13.4 µM; in the assay on HL-60(TB) leukemia it was 4.44 µM; in the assay with A498 renal, 20.3 µM; in the assay with KM12 colon, 10.9 µM; in the assay on ACHN renal, 11.2 µM; with MOLT-4 leukemia, 10.8 µM. Besides, the results for the TGI in the assay with NCI/ADR-RES ovarian, with IGROV1 ovarian and in the assay with UACC-62 melanoma were 16.1 µM, 16.4 µM and 18.3 µM, respectively.
For the compound `Cn1c2c(c3c(Cl)nncc31)Cc1ccccc1-2`, the GI50 in the assay on UO-31 renal is 31.4 µM; with A498 renal, 11.4 µM; in the assay on KM12 colon, 32.8 µM; in the assay with ACHN renal it was 11.6 µM; in the assay on MOLT-4 leukemia, 3120 nM; in the assay on NCI/ADR-RES ovarian, 16.3 µM. The GI50 in the assay with NCI-H460 lung was 5280 nM; with IGROV1 ovarian, 48.9 µM; with UACC-62 melanoma, 13.9 µM. The TGI in the assay on UO-31 renal was over 100 µM; in the assay on A498 renal, 34.5 µM; in the assay on KM12 colon, over 100 µM; with ACHN renal it was 54.3 µM; in the assay with NCI/ADR-RES ovarian, 44.5 µM; in the assay with NCI-H460 lung, 67.1 µM. Further, the TGI in the assay on IGROV1 ovarian is over 100 µM; in the assay with UACC-62 melanoma it was 62 µM.
Turning to `CC1NC(=O)C2=C1C(=O)NC(=O)C2` (configuration not stated), the GI50 in the assay on UO-31 renal is over 100 µM; in the assay with HL-60(TB) leukemia, over 100000 nM; in the assay on A498 renal it was over 100 µM; in the assay on KM12 colon it was over 100 µM; with ACHN renal, over 100 µM; in the assay with NCI/ADR-RES ovarian, over 100 µM. Also, the GI50 in the assay on NCI-H460 lung is over 100000 nM; with IGROV1 ovarian, over 100 µM; in the assay with UACC-62 melanoma it was over 100 µM. Besides, the TGI with UO-31 renal, in the assay with HL-60(TB) leukemia, in the assay with A498 renal, with KM12 colon, in the assay with ACHN renal and with NCI/ADR-RES ovarian was over 100 µM in each case. The TGI in the assay on NCI-H460 lung, in the assay with IGROV1 ovarian and in the assay on UACC-62 melanoma was over 100 µM throughout.
Take `O=C(O)C1[O][Sb][O]C(C(=O)O)C1O` (configuration not stated): the GI50 with UO-31 renal was over 100 µM; in the assay on A498 renal, over 100 µM; in the assay on KM12 colon, over 100 µM; with ACHN renal, over 100 µM; with MOLT-4 leukemia, over 100000 nM; in the assay with NCI/ADR-RES ovarian, over 100 µM. Moreover, the GI50 in the assay on NCI-H460 lung is over 100000 nM; with IGROV1 ovarian, over 100 µM; with UACC-62 melanoma, over 100 µM. Besides, the TGI with UO-31 renal, in the assay on A498 renal, in the assay on KM12 colon, in the assay with ACHN renal, in the assay with MOLT-4 leukemia and in the assay on NCI/ADR-RES ovarian was over 100 µM in each case. For the same compound, the TGI in the assay with NCI-H460 lung, with IGROV1 ovarian and with UACC-62 melanoma was over 100 µM in each case.

The values are drawn from PubChem BioAssay (NCI).
